ChEMBL document CHEMBL1201862, “PubChem BioAssay data set” (2004)
The source made the active and inactive calls.

Assays:
[1] = target: T1, Neuropeptides B/W receptor type 1 (Homo sapiens, UniProt P48145); test: human NPBW1 receptor blockade, IC50 – cell-based, fluorescence, dose response, late-stage follow-up (AID 463251); format: functional
T1 sequence (P48145 whole entry): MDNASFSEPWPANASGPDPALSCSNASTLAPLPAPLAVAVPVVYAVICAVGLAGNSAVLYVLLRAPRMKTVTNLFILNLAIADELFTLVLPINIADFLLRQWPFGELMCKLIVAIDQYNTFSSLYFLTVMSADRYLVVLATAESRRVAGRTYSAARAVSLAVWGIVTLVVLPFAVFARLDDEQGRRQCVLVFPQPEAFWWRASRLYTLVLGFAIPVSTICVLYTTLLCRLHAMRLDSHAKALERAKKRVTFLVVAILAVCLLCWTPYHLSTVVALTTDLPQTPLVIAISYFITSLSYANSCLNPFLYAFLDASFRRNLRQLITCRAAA

[2] = target: Melanin-concentrating hormone receptor 1 (Homo sapiens, UniProt Q99705); test: Late-stage fluorescence-based counterscreen for antagonists of the G-protein coupled receptor 7 (GPR7): cell-based dose response assay to identify antagonists of the melanin-concentrating hormone receptor 1 (MCHR1). [Related pubchem assays (depositor defined):AID1861, AID1880, AID1952, AID2148, AID2251, AID2257, AID485339]; format: functional;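 note: stimulated with 30 nM MCH peptide agonist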
Sequence of Melanin-concentrating hormone receptor 1 (Q99705 whole entry, the tested form may be a part): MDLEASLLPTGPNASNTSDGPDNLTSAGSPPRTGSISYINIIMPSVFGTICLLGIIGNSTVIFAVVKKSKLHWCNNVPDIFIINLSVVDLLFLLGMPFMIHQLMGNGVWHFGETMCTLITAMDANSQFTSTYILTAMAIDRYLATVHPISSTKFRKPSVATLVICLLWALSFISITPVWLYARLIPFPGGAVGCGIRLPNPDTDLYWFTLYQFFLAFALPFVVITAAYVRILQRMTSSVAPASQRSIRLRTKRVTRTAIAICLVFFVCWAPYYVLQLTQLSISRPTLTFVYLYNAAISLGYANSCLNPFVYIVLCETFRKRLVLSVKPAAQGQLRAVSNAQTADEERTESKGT

[3] = target: T2, RNA-binding protein pos-1 (Caenorhabditis elegans, UniProt G5EF15); test: disruptors of C. elegans POS-1 RNA interaction – biochemical, fluorescence polarization, dose response (AID 1964);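 note: purified POS-1 fused to maltose binding protein made in E. coli; potency of compounds blocking POS-1 binding to fluorescent RNA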
T2 sequence (G5EF15 whole entry): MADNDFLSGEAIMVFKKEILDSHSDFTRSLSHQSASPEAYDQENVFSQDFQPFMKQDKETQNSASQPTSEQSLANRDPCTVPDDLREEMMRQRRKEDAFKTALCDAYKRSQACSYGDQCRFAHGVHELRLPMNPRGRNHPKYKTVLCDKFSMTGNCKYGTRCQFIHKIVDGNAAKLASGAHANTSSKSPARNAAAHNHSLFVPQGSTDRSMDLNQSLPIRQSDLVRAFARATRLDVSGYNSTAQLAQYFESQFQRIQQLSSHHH

[4] = target: T3, Zinc finger protein mex-5 (Caenorhabditis elegans, UniProt Q9XUB2); test: potency of MEX-5 RNA-binding blockers – biochemical, C. elegans, fluorescence polarization, dose response (AID 1960)
T3 sequence (Q9XUB2 whole entry): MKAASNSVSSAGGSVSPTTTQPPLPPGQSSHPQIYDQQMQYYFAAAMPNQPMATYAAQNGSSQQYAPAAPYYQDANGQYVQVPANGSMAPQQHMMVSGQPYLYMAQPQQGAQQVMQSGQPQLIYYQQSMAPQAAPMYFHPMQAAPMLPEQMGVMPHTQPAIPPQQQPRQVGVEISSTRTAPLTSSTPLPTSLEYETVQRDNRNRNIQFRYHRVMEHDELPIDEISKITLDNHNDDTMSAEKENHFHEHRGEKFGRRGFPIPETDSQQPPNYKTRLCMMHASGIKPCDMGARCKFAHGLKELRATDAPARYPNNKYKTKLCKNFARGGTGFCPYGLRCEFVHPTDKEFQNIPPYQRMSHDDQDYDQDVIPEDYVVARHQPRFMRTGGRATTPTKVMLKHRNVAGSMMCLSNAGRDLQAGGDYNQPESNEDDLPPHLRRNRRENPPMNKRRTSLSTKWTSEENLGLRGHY

[5] = target: T4, Fibrinogen beta chain (Homo sapiens, UniProt P02675); test: Fluorescence polarization-based biochemical high throughput dose response assay to identify inhibitors that disrupt the binding of a cyclic peptide (Tn6) to the fibrin proteolytic product D-Dimer and fragment E complex [DD(E )].
T4 sequence (P02675 whole entry, the tested form may be a part): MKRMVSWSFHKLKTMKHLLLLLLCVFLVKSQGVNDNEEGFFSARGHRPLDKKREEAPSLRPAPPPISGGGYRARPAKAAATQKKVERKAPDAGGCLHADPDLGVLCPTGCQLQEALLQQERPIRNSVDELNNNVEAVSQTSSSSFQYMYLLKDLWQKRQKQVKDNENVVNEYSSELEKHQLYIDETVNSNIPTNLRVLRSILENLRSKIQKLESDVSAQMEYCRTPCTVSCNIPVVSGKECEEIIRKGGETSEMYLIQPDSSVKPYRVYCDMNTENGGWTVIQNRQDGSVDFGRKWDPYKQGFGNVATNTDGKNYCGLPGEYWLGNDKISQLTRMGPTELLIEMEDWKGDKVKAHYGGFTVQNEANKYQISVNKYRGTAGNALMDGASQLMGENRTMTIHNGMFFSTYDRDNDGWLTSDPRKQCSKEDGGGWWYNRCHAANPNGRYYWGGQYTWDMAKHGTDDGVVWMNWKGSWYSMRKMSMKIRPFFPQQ

[6] = target: Female germline-specific tumor suppressor gld-1 (Caenorhabditis elegans, UniProt Q17339); test: blockers of GLD-1/TGE RNA complex formation – biochemical, fluorescence polarization, C. elegans, dose response (AID 2802);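 note: fluorescence polarization of labeled TGE RNA bound by purified gld-1 protein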
Sequence of Female germline-specific tumor suppressor gld-1 (Q17339 whole entry, the tested form may be a part): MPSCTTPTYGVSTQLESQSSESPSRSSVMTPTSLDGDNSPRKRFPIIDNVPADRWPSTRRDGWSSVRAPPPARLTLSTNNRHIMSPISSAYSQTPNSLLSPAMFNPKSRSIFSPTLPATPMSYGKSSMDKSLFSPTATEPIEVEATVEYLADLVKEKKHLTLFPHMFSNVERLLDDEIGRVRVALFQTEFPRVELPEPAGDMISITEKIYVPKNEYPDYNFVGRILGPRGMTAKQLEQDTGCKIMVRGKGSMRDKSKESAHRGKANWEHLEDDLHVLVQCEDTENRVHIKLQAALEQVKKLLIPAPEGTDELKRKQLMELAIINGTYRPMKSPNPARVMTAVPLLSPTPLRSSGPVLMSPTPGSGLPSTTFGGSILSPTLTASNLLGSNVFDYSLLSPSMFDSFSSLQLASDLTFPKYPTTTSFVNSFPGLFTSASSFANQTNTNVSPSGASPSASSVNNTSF

[7] = target: T4, Fibrinogen beta chain; test: Fluorescence polarization-based biochemical high throughput dose response assay to identify inhibitors that disrupt the binding of a cyclic peptide (Tn7) to the fibrin proteolytic product D-Dimer and fragment E complex [DD(E )].
[8] = target: T5, Long-chain-fatty-acid--AMP ligase FadD28 (Mycobacterium tuberculosis, UniProt P9WQ59); test: Fluorescence polarization aasay to screen for inhibitors that compete for the binding of FadD28 to a bisubstrate Measured in Biochemical System Using Plate Reader - 2147-01_Inhibitor_Dose_CherryPick_Activity.; format: functional, Mycobacterium tuberculosis H37Rv
T5 sequence (P9WQ59 whole entry): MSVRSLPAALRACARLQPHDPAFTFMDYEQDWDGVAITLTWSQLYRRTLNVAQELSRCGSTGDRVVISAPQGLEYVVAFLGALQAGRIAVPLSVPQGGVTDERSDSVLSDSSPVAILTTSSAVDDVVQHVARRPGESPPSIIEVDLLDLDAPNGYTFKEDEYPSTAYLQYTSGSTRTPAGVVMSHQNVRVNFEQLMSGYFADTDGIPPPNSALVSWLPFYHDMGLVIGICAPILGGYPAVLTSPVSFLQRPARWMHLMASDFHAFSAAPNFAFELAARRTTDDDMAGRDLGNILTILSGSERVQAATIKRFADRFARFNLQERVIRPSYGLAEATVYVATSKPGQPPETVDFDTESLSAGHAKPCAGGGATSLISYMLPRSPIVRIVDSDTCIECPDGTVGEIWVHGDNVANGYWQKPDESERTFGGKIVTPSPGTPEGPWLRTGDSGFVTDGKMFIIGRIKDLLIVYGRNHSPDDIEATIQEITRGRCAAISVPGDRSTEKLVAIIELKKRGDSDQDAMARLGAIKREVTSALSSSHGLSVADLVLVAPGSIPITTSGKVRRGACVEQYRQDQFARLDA

[9] = target: Protein S100-A4 (Homo sapiens, UniProt P26447); test: human S100A4 peptide interaction inhibition curves – biochemical, fluorescence polarization, cherry-picked hits, dose response (AID 687001); format: functional
Sequence of Protein S100-A4 (P26447 whole entry): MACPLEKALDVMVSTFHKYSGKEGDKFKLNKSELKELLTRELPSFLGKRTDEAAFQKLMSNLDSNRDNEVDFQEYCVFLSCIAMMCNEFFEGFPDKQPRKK

[10] = target: T6, Histone-lysine N-methyltransferase NSD2 (Homo sapiens, UniProt O96028); format: biochemical
T6 sequence (O96028 whole entry): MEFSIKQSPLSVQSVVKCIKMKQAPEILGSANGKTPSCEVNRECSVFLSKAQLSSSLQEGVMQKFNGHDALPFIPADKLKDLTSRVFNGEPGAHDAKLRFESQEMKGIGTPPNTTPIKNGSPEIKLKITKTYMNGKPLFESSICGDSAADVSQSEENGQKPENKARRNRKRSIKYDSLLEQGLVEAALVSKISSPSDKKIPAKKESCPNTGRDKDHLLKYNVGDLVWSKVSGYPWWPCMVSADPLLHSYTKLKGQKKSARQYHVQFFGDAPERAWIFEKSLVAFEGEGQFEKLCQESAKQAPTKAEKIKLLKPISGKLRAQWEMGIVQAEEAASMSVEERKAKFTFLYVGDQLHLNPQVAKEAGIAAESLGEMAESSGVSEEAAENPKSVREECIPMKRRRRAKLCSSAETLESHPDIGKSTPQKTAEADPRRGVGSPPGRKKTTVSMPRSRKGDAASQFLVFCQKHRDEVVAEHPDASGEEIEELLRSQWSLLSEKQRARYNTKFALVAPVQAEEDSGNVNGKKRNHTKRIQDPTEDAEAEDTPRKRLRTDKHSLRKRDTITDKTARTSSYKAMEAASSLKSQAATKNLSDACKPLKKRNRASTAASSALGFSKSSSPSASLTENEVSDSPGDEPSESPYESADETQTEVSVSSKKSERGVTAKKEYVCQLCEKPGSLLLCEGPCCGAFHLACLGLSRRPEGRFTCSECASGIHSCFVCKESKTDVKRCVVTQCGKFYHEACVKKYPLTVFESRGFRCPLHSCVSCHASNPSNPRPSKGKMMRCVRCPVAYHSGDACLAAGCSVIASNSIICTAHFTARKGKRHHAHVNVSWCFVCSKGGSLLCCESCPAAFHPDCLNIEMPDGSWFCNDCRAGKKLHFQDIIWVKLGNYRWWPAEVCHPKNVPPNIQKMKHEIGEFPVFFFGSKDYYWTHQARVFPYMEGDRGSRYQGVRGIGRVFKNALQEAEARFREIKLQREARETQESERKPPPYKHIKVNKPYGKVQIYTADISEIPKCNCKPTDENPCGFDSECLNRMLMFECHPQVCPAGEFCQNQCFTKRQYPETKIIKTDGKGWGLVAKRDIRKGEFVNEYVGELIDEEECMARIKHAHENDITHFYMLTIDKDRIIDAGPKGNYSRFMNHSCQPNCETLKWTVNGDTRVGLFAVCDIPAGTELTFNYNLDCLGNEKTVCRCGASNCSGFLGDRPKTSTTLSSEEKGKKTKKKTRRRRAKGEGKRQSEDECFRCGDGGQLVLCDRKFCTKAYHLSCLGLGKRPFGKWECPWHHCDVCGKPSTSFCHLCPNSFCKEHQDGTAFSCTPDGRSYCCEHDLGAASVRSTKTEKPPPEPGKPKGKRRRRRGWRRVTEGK

[11] = target: Protein Rev (Human immunodeficiency virus type 1 group M subtype B (isolate HXB2)(HIV-1), UniProt P04618); test: blockers of HIV Rev/RRE RNA complex – biochemical, fluorescence polarization, HIV-1, dose response (AID 434976); parameters: species or system Human immunodeficiency virus 1
Sequence of Protein Rev (P04618 whole entry): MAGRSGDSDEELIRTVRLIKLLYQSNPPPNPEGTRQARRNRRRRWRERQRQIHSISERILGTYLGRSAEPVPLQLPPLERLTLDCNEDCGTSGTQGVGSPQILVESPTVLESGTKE

[12] = target: Voltage-dependent T-type calcium channel subunit alpha-1H (Homo sapiens, UniProt O95180); test: human CACNA1H calcium influx blockade – cell-based, synthetic library set 1, calcium flux (AID 493022); format: functional
Sequence of Voltage-dependent T-type calcium channel subunit alpha-1H (O95180 whole entry): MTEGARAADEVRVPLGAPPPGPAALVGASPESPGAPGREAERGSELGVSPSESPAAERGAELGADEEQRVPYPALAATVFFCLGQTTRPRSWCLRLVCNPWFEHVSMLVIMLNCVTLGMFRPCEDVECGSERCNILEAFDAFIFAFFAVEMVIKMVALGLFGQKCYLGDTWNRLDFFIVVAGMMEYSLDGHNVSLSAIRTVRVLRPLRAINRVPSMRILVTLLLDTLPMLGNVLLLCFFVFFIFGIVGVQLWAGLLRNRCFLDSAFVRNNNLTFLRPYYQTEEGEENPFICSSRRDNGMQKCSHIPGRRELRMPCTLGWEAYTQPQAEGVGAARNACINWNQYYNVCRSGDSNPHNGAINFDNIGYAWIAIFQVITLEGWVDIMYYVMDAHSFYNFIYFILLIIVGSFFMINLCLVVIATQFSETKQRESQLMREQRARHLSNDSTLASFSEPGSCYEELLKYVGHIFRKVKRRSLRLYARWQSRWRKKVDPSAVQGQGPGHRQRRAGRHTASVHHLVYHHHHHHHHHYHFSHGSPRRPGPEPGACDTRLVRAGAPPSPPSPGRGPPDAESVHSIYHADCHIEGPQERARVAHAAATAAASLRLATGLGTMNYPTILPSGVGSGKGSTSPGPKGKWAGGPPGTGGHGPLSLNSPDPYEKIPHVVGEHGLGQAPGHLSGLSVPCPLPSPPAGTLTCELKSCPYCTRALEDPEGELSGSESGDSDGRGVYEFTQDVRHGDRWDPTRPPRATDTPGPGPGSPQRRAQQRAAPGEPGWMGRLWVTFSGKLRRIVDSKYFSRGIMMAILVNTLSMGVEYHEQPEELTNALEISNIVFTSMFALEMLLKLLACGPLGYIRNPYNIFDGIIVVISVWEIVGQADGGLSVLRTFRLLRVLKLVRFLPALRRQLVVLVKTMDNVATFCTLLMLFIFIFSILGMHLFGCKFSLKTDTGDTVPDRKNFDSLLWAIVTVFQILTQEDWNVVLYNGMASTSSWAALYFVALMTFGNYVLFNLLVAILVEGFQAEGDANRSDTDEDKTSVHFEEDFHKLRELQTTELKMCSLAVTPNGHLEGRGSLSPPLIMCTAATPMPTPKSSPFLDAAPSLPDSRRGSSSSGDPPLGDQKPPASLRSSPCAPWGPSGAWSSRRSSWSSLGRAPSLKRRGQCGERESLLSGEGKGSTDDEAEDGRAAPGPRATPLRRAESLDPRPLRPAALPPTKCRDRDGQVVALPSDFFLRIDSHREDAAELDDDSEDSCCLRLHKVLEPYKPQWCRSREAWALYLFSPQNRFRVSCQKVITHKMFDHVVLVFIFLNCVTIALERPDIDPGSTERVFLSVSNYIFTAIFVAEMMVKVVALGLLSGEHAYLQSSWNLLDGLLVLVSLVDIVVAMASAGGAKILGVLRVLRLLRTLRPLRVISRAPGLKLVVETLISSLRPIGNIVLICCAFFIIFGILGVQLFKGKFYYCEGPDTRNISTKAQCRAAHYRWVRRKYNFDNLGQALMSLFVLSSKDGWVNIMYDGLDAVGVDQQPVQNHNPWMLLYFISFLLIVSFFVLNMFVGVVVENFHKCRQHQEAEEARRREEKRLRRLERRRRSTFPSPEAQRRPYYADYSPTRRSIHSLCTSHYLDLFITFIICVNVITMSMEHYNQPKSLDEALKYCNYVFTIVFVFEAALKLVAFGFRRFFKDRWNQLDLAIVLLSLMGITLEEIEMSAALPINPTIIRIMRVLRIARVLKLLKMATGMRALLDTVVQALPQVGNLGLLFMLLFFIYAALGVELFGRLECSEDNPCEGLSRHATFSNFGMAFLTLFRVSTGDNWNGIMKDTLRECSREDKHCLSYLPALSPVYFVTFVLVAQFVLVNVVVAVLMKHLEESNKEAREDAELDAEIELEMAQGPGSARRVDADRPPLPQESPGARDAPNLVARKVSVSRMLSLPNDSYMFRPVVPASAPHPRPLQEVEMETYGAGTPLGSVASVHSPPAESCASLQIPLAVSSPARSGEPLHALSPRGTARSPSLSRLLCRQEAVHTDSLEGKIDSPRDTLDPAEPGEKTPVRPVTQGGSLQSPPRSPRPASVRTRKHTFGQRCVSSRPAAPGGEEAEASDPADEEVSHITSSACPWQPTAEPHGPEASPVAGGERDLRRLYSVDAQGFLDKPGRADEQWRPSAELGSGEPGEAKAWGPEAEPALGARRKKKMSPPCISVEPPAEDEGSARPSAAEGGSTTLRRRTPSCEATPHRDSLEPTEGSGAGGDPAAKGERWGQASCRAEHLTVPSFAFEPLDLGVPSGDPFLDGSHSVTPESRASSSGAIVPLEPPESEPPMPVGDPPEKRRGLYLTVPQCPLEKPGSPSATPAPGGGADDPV

`COc1ccc(Oc2c(Cl)cnn(-c3cc(C(F)(F)F)cc(C(F)(F)F)c3)c2=O)cc1` was tested, and the IC50 [1] was 1.2 µM (active) and the IC50 [2] was 1.5 µM (active).

With `Cn1c(=O)cc2c3c(c(N4CCCCC4)ccc31)C(=O)c1ccccc1-2` the EC50 [3] was > 300 µM (inconclusive), the EC50 [4] was 25.9 µM (active) and the IC50 [5] was > 27.8 µM (inactive). For the same compound, the IC50 [6] was 4.96 µM (active), the IC50 [7] was > 83.3 µM (inactive) and the AC50 [8] was 11.8 µM (active). For the same compound, the AC50 [9] was 1.72 µM (active), the AC50 [10] was 12.3 µM (active) and the IC50 [11] was 14.2 µM (not active).

With `O=C(COc1ccccc1Cl)Nc1nnc(-c2ccc3c(c2)CCCC3)o1` the EC50 [12] was 10 µM (active).
